Each block holds one compound with its values, some of them ahead of it.
Experiments:
Trifoliumre pensL. = assay: Post-emergence herbicidal activity test (stem and leaf spray, pot culture); assay type: in vivo; conditions: 3 weeks after spraying
Summary of the method: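 Pot-grown weeds in loam (pH 7), greenhouse at 20–30 °C, sprayed once post-emergence at the 2–3-leaf stage. Compound in acetone with Tween 80 plus methyl oleate oil (1.5 L/ha), applied at 10, 5 and 2.5 g/mu by spray tower. Effect scored 3 weeks after spraying, averaged over three repeats.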

Abutilon theophrasti = assay: Post-emergence herbicidal activity test (stem and leaf spray, pot culture); assay type: in vivo; conditions: 3 weeks after spraying
Summary of the method: (§1)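 Greenhouse pot-grown weeds (loam, pH 7) sprayed post-emergence at 2- to 3-leaf stage with acetone/Tween 80 formulation plus 1.5 liters/ha methyl oleate, at 10, 5 and 2.5 g/mu. Fresh-weight growth control rated 3 weeks later on 0–5 grade scale.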

Echinochloa crusgalli = assay: as above; assay type: in vivo; conditions: 3 weeks after spraying
Summary of the method: as §1

Amaranthus retroflexus = assay: as above; assay type: in vivo; conditions: 3 weeks after spraying
Summary of the method: as §1

Portulaca oleracea = assay: as above; assay type: in vivo; conditions: 3 weeks after spraying
Summary of the method: as §1

Setaria viridis = assay: as above; assay type: in vivo; conditions: 3 weeks after spraying
Summary of the method: as §1

melting point: 135 to 137 °C
Compound: O=C(COc1cc(N2C(=O)C3=C(CCCC3)C2=O)c(F)cc1Cl)c1cc(F)cc(F)c1 [Compound C5, 2-(4-chloro-2-fluoro-5-(2-oxo-2-(3,5-difluorophenyl)ethoxy)phenyl)-4,5,6,7-tetrahydro-1H-isoindole-1,3(2H)-dione]
Post-emergence herbicidal activity, Trifoliumre pensL. (grade) (Trifoliumre pensL.; dosage 2.5 g/mu): 5 (Grade 5: the growth control rate is greater than or equal to 85%)
Post-emergence herbicidal activity, Trifoliumre pensL. (grade) (Trifoliumre pensL.; dosage 5 g/mu): 5 (Grade 5: the growth control rate is greater than or equal to 85%)
Post-emergence herbicidal activity, Trifoliumre pensL. (grade) (Trifoliumre pensL.; dosage 10 g/mu): 5 (Grade 5: the growth control rate is greater than or equal to 85%)
Post-emergence herbicidal activity, A. theophrasti (grade) (Abutilon theophrasti; dosage 2.5 g/mu): 5 (Grade 5: the growth control rate is greater than or equal to 85%)
Post-emergence herbicidal activity, A. theophrasti (grade) (Abutilon theophrasti; dosage 5 g/mu): 5 (Grade 5: the growth control rate is greater than or equal to 85%)
Post-emergence herbicidal activity, A. theophrasti (grade) (Abutilon theophrasti; dosage 10 g/mu): 5 (Grade 5: the growth control rate is greater than or equal to 85%)
Post-emergence herbicidal activity, E. crusgalli (grade) (Echinochloa crusgalli; dosage 2.5 g/mu): 1 (Grade 1: the growth control rate is greater than or equal to 5% and less than 20%)
Post-emergence herbicidal activity, E. crusgalli (grade) (Echinochloa crusgalli; dosage 5 g/mu): 2 (Grade 2: the growth control rate is greater than or equal to 20% and less than 40%)
Post-emergence herbicidal activity, E. crusgalli (grade) (Echinochloa crusgalli; dosage 10 g/mu): 3 (Grade 3: the growth control rate is greater than or equal to 40% and less than 60%)
Post-emergence herbicidal activity, A. retroflexus (grade) (Amaranthus retroflexus; dosage 2.5 g/mu): 5 (Grade 5: the growth control rate is greater than or equal to 85%)
Post-emergence herbicidal activity, A. retroflexus (grade) (Amaranthus retroflexus; dosage 5 g/mu): 5 (Grade 5: the growth control rate is greater than or equal to 85%)
Post-emergence herbicidal activity, A. retroflexus (grade) (Amaranthus retroflexus; dosage 10 g/mu): 5 (Grade 5: the growth control rate is greater than or equal to 85%)
Post-emergence herbicidal activity, P. oleracea (grade) (Portulaca oleracea; dosage 2.5 g/mu): 5 (Grade 5: the growth control rate is greater than or equal to 85%)
Post-emergence herbicidal activity, P. oleracea (grade) (Portulaca oleracea; dosage 5 g/mu): 5 (Grade 5: the growth control rate is greater than or equal to 85%)
Post-emergence herbicidal activity, P. oleracea (grade) (Portulaca oleracea; dosage 10 g/mu): 5 (Grade 5: the growth control rate is greater than or equal to 85%)
Post-emergence herbicidal activity, S. viridis (grade) (Setaria viridis; dosage 2.5 g/mu): 2 (Grade 2: the growth control rate is greater than or equal to 20% and less than 40%)
Post-emergence herbicidal activity, S. viridis (grade) (Setaria viridis; dosage 5 g/mu): 3 (Grade 3: the growth control rate is greater than or equal to 40% and less than 60%)
Post-emergence herbicidal activity, S. viridis (grade) (Setaria viridis; dosage 10 g/mu): 4 (Grade 4: the growth control rate is greater than or equal to 60% and less than 85%)

melting point: 144 to 146 °C
Compound: Cc1ccc(C(=O)COc2ccc(N3C(=O)C4=C(CCCC4)C3=O)c(F)c2)cc1 [Compound C15, 2-(2-fluoro-4-(2-oxo-2-(4-tolyl)ethoxy)phenyl)-4,5,6,7-tetrahydro-1H-isoindole-1,3(2H)-dione]
Post-emergence herbicidal activity, Trifoliumre pensL. (grade) (Trifoliumre pensL.; dosage 2.5 g/mu): 5 (Grade 5: the growth control rate is greater than or equal to 85%)
Post-emergence herbicidal activity, Trifoliumre pensL. (grade) (Trifoliumre pensL.; dosage 5 g/mu): 5 (Grade 5: the growth control rate is greater than or equal to 85%)
Post-emergence herbicidal activity, Trifoliumre pensL. (grade) (Trifoliumre pensL.; dosage 10 g/mu): 5 (Grade 5: the growth control rate is greater than or equal to 85%)
Post-emergence herbicidal activity, A. theophrasti (grade) (Abutilon theophrasti; dosage 2.5 g/mu): 5 (Grade 5: the growth control rate is greater than or equal to 85%)
Post-emergence herbicidal activity, A. theophrasti (grade) (Abutilon theophrasti; dosage 5 g/mu): 5 (Grade 5: the growth control rate is greater than or equal to 85%)
Post-emergence herbicidal activity, A. theophrasti (grade) (Abutilon theophrasti; dosage 10 g/mu): 5 (Grade 5: the growth control rate is greater than or equal to 85%)
Post-emergence herbicidal activity, E. crusgalli (grade) (Echinochloa crusgalli; dosage 2.5 g/mu): 1 (Grade 1: the growth control rate is greater than or equal to 5% and less than 20%)
Post-emergence herbicidal activity, E. crusgalli (grade) (Echinochloa crusgalli; dosage 5 g/mu): 2 (Grade 2: the growth control rate is greater than or equal to 20% and less than 40%)
Post-emergence herbicidal activity, E. crusgalli (grade) (Echinochloa crusgalli; dosage 10 g/mu): 3 (Grade 3: the growth control rate is greater than or equal to 40% and less than 60%)
Post-emergence herbicidal activity, A. retroflexus (grade) (Amaranthus retroflexus; dosage 2.5 g/mu): 5 (Grade 5: the growth control rate is greater than or equal to 85%)
Post-emergence herbicidal activity, A. retroflexus (grade) (Amaranthus retroflexus; dosage 5 g/mu): 5 (Grade 5: the growth control rate is greater than or equal to 85%)
Post-emergence herbicidal activity, A. retroflexus (grade) (Amaranthus retroflexus; dosage 10 g/mu): 5 (Grade 5: the growth control rate is greater than or equal to 85%)
Post-emergence herbicidal activity, P. oleracea (grade) (Portulaca oleracea; dosage 2.5 g/mu): 5 (Grade 5: the growth control rate is greater than or equal to 85%)
Post-emergence herbicidal activity, P. oleracea (grade) (Portulaca oleracea; dosage 5 g/mu): 5 (Grade 5: the growth control rate is greater than or equal to 85%)
Post-emergence herbicidal activity, P. oleracea (grade) (Portulaca oleracea; dosage 10 g/mu): 5 (Grade 5: the growth control rate is greater than or equal to 85%)
Post-emergence herbicidal activity, S. viridis (grade) (Setaria viridis; dosage 2.5 g/mu): 2 (Grade 2: the growth control rate is greater than or equal to 20% and less than 40%)
Post-emergence herbicidal activity, S. viridis (grade) (Setaria viridis; dosage 5 g/mu): 3 (Grade 3: the growth control rate is greater than or equal to 40% and less than 60%)
Post-emergence herbicidal activity, S. viridis (grade) (Setaria viridis; dosage 10 g/mu): 4 (Grade 4: the growth control rate is greater than or equal to 60% and less than 85%)

melting point: 101 to 105 °C
Compound: Cc1ccc(Br)cc1-c1noc(COc2cc(N3C(=O)C4=C(CCCC4)C3=O)c(F)cc2Cl)n1 [Compound A1, 2-(5-((3-(5-bromo-2-tolyl)-1,2,4-oxadiazole-5-yl)methoxy)-4-chloro-2-fluorophenyl)-4,5,6,7-tetrahydro-1H-isoindole-1,3(2H)-dione]
Post-emergence herbicidal activity, Trifoliumre pensL. (grade) (Trifoliumre pensL.; dosage 2.5 g/mu): 4 (Grade 4: the growth control rate is greater than or equal to 60% and less than 85%)
Post-emergence herbicidal activity, Trifoliumre pensL. (grade) (Trifoliumre pensL.; dosage 5 g/mu): 5 (Grade 5: the growth control rate is greater than or equal to 85%)
Post-emergence herbicidal activity, Trifoliumre pensL. (grade) (Trifoliumre pensL.; dosage 10 g/mu): 5 (Grade 5: the growth control rate is greater than or equal to 85%)
Post-emergence herbicidal activity, A. theophrasti (grade) (Abutilon theophrasti; dosage 2.5 g/mu): 5 (Grade 5: the growth control rate is greater than or equal to 85%)
Post-emergence herbicidal activity, A. theophrasti (grade) (Abutilon theophrasti; dosage 5 g/mu): 5 (Grade 5: the growth control rate is greater than or equal to 85%)
Post-emergence herbicidal activity, A. theophrasti (grade) (Abutilon theophrasti; dosage 10 g/mu): 5 (Grade 5: the growth control rate is greater than or equal to 85%)
Post-emergence herbicidal activity, E. crusgalli (grade) (Echinochloa crusgalli; dosage 2.5 g/mu): 1 (Grade 1: the growth control rate is greater than or equal to 5% and less than 20%)
Post-emergence herbicidal activity, E. crusgalli (grade) (Echinochloa crusgalli; dosage 5 g/mu): 2 (Grade 2: the growth control rate is greater than or equal to 20% and less than 40%)
Post-emergence herbicidal activity, E. crusgalli (grade) (Echinochloa crusgalli; dosage 10 g/mu): 3 (Grade 3: the growth control rate is greater than or equal to 40% and less than 60%)
Post-emergence herbicidal activity, A. retroflexus (grade) (Amaranthus retroflexus; dosage 2.5 g/mu): 5 (Grade 5: the growth control rate is greater than or equal to 85%)
Post-emergence herbicidal activity, A. retroflexus (grade) (Amaranthus retroflexus; dosage 5 g/mu): 5 (Grade 5: the growth control rate is greater than or equal to 85%)
Post-emergence herbicidal activity, A. retroflexus (grade) (Amaranthus retroflexus; dosage 10 g/mu): 5 (Grade 5: the growth control rate is greater than or equal to 85%)
Post-emergence herbicidal activity, P. oleracea (grade) (Portulaca oleracea; dosage 2.5 g/mu): 4 (Grade 4: the growth control rate is greater than or equal to 60% and less than 85%)
Post-emergence herbicidal activity, P. oleracea (grade) (Portulaca oleracea; dosage 5 g/mu): 5 (Grade 5: the growth control rate is greater than or equal to 85%)
Post-emergence herbicidal activity, P. oleracea (grade) (Portulaca oleracea; dosage 10 g/mu): 5 (Grade 5: the growth control rate is greater than or equal to 85%)
Post-emergence herbicidal activity, S. viridis (grade) (Setaria viridis; dosage 2.5 g/mu): 2 (Grade 2: the growth control rate is greater than or equal to 20% and less than 40%)
Post-emergence herbicidal activity, S. viridis (grade) (Setaria viridis; dosage 5 g/mu): 3 (Grade 3: the growth control rate is greater than or equal to 40% and less than 60%)
Post-emergence herbicidal activity, S. viridis (grade) (Setaria viridis; dosage 10 g/mu): 4 (Grade 4: the growth control rate is greater than or equal to 60% and less than 85%)

melting point: 141 to 143 °C
Compound: O=C(COc1cc(N2C(=O)C3=C(CCCC3)C2=O)c(F)cc1Cl)c1ccccc1F [Compound C4, 2-(4-chloro-2-fluoro-5-(2-oxo-2-(2-fluorophenyl)ethoxy)phenyl)-4,5,6,7-tetrahydro-1H-isoindole-1,3(2H)-dione]
Post-emergence herbicidal activity, Trifoliumre pensL. (grade) (Trifoliumre pensL.; dosage 2.5 g/mu): 5 (Grade 5: the growth control rate is greater than or equal to 85%)
Post-emergence herbicidal activity, Trifoliumre pensL. (grade) (Trifoliumre pensL.; dosage 5 g/mu): 5 (Grade 5: the growth control rate is greater than or equal to 85%)
Post-emergence herbicidal activity, Trifoliumre pensL. (grade) (Trifoliumre pensL.; dosage 10 g/mu): 5 (Grade 5: the growth control rate is greater than or equal to 85%)
Post-emergence herbicidal activity, A. theophrasti (grade) (Abutilon theophrasti; dosage 2.5 g/mu): 5 (Grade 5: the growth control rate is greater than or equal to 85%)
Post-emergence herbicidal activity, A. theophrasti (grade) (Abutilon theophrasti; dosage 5 g/mu): 5 (Grade 5: the growth control rate is greater than or equal to 85%)
Post-emergence herbicidal activity, A. theophrasti (grade) (Abutilon theophrasti; dosage 10 g/mu): 5 (Grade 5: the growth control rate is greater than or equal to 85%)
Post-emergence herbicidal activity, E. crusgalli (grade) (Echinochloa crusgalli; dosage 2.5 g/mu): 1 (Grade 1: the growth control rate is greater than or equal to 5% and less than 20%)
Post-emergence herbicidal activity, E. crusgalli (grade) (Echinochloa crusgalli; dosage 5 g/mu): 2 (Grade 2: the growth control rate is greater than or equal to 20% and less than 40%)
Post-emergence herbicidal activity, E. crusgalli (grade) (Echinochloa crusgalli; dosage 10 g/mu): 3 (Grade 3: the growth control rate is greater than or equal to 40% and less than 60%)
Post-emergence herbicidal activity, A. retroflexus (grade) (Amaranthus retroflexus; dosage 2.5 g/mu): 5 (Grade 5: the growth control rate is greater than or equal to 85%)
Post-emergence herbicidal activity, A. retroflexus (grade) (Amaranthus retroflexus; dosage 5 g/mu): 5 (Grade 5: the growth control rate is greater than or equal to 85%)
Post-emergence herbicidal activity, A. retroflexus (grade) (Amaranthus retroflexus; dosage 10 g/mu): 5 (Grade 5: the growth control rate is greater than or equal to 85%)
Post-emergence herbicidal activity, P. oleracea (grade) (Portulaca oleracea; dosage 2.5 g/mu): 5 (Grade 5: the growth control rate is greater than or equal to 85%)
Post-emergence herbicidal activity, P. oleracea (grade) (Portulaca oleracea; dosage 5 g/mu): 5 (Grade 5: the growth control rate is greater than or equal to 85%)
Post-emergence herbicidal activity, P. oleracea (grade) (Portulaca oleracea; dosage 10 g/mu): 5 (Grade 5: the growth control rate is greater than or equal to 85%)
Post-emergence herbicidal activity, S. viridis (grade) (Setaria viridis; dosage 2.5 g/mu): 2 (Grade 2: the growth control rate is greater than or equal to 20% and less than 40%)
Post-emergence herbicidal activity, S. viridis (grade) (Setaria viridis; dosage 5 g/mu): 3 (Grade 3: the growth control rate is greater than or equal to 40% and less than 60%)
Post-emergence herbicidal activity, S. viridis (grade) (Setaria viridis; dosage 10 g/mu): 4 (Grade 4: the growth control rate is greater than or equal to 60% and less than 85%)
